Data from article PMC8408276, “Distinct neuropeptide-receptor modules regulate a sex-specific behavioral response to a pheromone” (Communications Biology, 2021).
Entries after “also recorded” stand apart in the source; their conditions may differ. Where a SMILES comes first, the peptide text is derived from it. Where no end group is shown, it is not given here.

What was measured:
NPR-10B = biological target: T1, NPR-10B (Caenorhabditis elegans, UniProt Q6EUU1); test: In vitro GPCR activation assay (CHO-K1, aequorin, Gα16), NPR-10B; type: cell-based, C. elegans; settings: for EC50: NPR-10B in CHO-K1 cells with mtAEQ aequorin and human Gα16, peptide 1 pM to 10 µM, n ≥ 6, Fig. 4i
T1 sequence (Q6EUU1 1-362): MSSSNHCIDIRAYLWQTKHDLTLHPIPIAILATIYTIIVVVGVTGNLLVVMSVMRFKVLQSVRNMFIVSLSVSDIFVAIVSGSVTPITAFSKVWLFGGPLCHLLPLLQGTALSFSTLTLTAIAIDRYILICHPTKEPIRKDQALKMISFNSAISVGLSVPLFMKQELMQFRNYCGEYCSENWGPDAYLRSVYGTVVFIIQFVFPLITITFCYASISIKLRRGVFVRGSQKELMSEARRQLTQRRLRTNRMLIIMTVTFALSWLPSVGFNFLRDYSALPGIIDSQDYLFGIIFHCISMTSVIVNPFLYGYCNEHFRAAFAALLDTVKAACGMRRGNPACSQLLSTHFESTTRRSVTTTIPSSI
Method: (§1) The GPCR activation assay was performed as previously described[66],[74]. Briefly, npr-10 and frpr-16 cDNAs were cloned into the pcDNA3.1 TOPO expression vector (Thermo Fisher Scientific). A CHO-K1 cell line (PerkinElmer, ES-000-A24) stably expressing apo-aequorin targeted to the mitochondria (mtAEQ) and human Gα16 was transiently transfected with the receptor cDNA construct or the empty pcDNA3.1 vector using Lipofectamine LTX and Plus reagent (Thermo Fisher Scientific). Cells were shifted to 28 °C one day later and allowed to incubate for 24 h. On the day of the assay, cells were collected in BSA medium (DMEM/Ham’s F12 with 15 mM HEPES, without phenol red, 0.1% BSA) and loaded with […] coelenterazine h (Thermo Fisher Scientific) for 4 h at room temperature. The incubated cells were then added to synthetic peptides dissolved in DMEM/BSA, and luminescence was measured for 30 s at 496 nm using a Mithras LB940 (Berthold Technologies) or MicroBeta LumiJet luminometer (PerkinElmer). After 30 s of readout, 0.1% triton X-100 was added to lyse the cells, resulting in a maximal calcium response that was measured for 10 s. After initial screening, concentration-response curves were constructed for HPLC-purified FLP-3 peptides by subjecting the transfected cells to each peptide in a concentration range from 1 pM to 10 µM. Cells transfected with an empty vector were used as a negative control. Assays were performed in triplicate on at least two independent days. Concentration-response curves were fitted using Prism v. 7 (nonlinear regression analysis with a sigmoidal concentration-response equation).

FRPR-16 = biological target: T2, FRPR-16 (Caenorhabditis elegans, UniProt Q21957); test: In vitro GPCR activation assay (CHO-K1, aequorin, Gα16), FRPR-16; type: cell-based, C. elegans; settings: for EC50: FRPR-16 in CHO-K1 cells with mtAEQ aequorin and human Gα16, peptide 1 pM to 10 µM, n ≥ 6, Fig. 4i
T2 sequence (Q21957 1-340): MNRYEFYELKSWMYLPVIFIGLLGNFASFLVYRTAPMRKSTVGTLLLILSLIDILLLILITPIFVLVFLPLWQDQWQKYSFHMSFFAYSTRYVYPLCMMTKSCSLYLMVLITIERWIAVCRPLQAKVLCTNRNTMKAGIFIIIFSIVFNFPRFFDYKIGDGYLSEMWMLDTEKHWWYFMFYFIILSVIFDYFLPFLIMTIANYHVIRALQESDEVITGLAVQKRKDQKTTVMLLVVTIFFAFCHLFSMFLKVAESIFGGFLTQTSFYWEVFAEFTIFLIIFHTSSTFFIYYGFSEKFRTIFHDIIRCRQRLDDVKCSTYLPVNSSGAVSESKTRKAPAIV
Method: as §1

C. elegans = test: Single worm attraction assay (SWAA); type: in vivo; settings: flp-3 lof males; Supplementary Fig. 5
Method: We adapted the spot retention assay (Supplementary Fig. 1)[28],[38] to allow for better characterization of individual worm behavior and robust interrogation of attraction to small molecules. We first compared the attractiveness of 1 µM ascr#8 (Fig. 1a, inset) across multiple strains of C. elegans (the wild-type N2 strain, the high incidence of male him-5 and him-8 strains, and the chemosensory cilia defective osm-3), using our novel behavioral assay, the single worm attraction assay (SWAA) (Fig. 1a). In this assay, individual animals are placed directly into the spot of the ascaroside cue (A) while simultaneously removing any potential of male–male contact. A spatial control is included throughout the assay plate to allow us to investigate any innate differences in the number of visits to the well center, or the time spent therein, of which we have only found one strain to date with differences in male dwell time (Fig. 1a). Likewise, a vehicle control (V) is also included, to account of any changes in dwell time that are driven by the components of the vehicle. The outer forty wells of a 48-well suspension culture plate (Olympus Plastics, Cat #: 25-103) were seeded with 200 µL of standard NGM agar. To prepare the plates for the assay, they were acclimated to room temperature, at which point each well was seeded with 65 µL of OP50 E. coli. […] A single worm was placed in each of the 10 wells to be assayed, and the plate was transferred to a light source and camera and recorded for 15 m. […] Raw dwell time values were calculated by subtracting the time a worm exited the cue (center of the well in spatial controls), from the time it entered, as in the SRA[14]. This was determined per visit, and the average dwell time was calculated for each animal in the quadrant. Averages of the four-quadrant means were determined per plate, and a minimum of five plates were assayed per strain/condition. The mean raw dwell time across five plates was calculated and used for statistical analyses and graphical display. […] The number of visits per-worm was calculated, and the average visit count determined per quadrant, and per plate. The average visit count across five plates was calculated and used for statistical analyses and graphical display. An “attractive visit” was first determined for each plate as any visit greater than two standard deviations above the mean dwell time within the vehicle control for that plate. Any individual visit meeting this threshold was scored as a “1”, and any below was scored a “0”. The percent visits per-worm that were attractive was determined, and the average of each quadrant taken. […] The average percent of attractive visits across five plates was calculated and used for statistical analyses and graphical display. […]

NPR-10A = test: In vitro GPCR activation assay (CHO-K1, aequorin, Gα16), NPR-10A; type: cell-based, C. elegans; settings: CHO-K1 aequorin/Gα16 calcium response; Supplementary Fig. 10a
Method: This peptide contains an R-to-K mutation within the C-terminal motif, which may explain the lack of receptor activation.
as §1, with “After initial screening, concentration-response curves were constructed for HPLC-purified FLP-3 peptides by subjecting the transfected cells to each peptide in a concentration range from 1 pM to 10 µM. Cells transfected with an empty vector were used as a negative control. Assays were performed in triplicate on at least two independent days. Concentration-response curves were fitted using Prism v. 7 (nonlinear regression analysis with a sigmoidal concentration-response equation).” left out

[1] = CHO-K1 aequorin/Gα16 calcium response

Molecule	EC50 (NPR-10B; luminescence 30 s) [nM]	EC50 (FRPR-16; luminescence 30 s) [nM]	also measured
CSCC[C@H](NC(=O)[C@@H](NC(=O)CNC(=O)[C@H](CC(C)C)NC(=O)[C@@H]1CCCN1C(=O)[C@@H](N)CO)[C@@H](C)O)C(=O)N[C@@H](CCCNC(=N)N)C(=O)N[C@@H](Cc1ccccc1)C(N)=O [FLP-3-1, SPLGTMRFamide] (H-SPLGTMRF-NH2)	262	7.4	–
CSCC[C@H](NC(=O)[C@@H](NC(=O)CNC(=O)[C@H](CC(C)C)NC(=O)[C@@H]1CCCN1C(=O)[C@@H](N)[C@@H](C)O)[C@@H](C)O)C(=O)N[C@@H](CCCNC(=N)N)C(=O)N[C@@H](Cc1ccccc1)C(N)=O [FLP-3-2, TPLGTMRFamide] (H-TPLGTMRF-NH2)	367	31.7	–
CSCC[C@H](NC(=O)[C@@H](NC(=O)CNC(=O)[C@H](CC(C)C)NC(=O)[C@@H]1CCCN1C(=O)[C@H](CCC(=O)O)NC(=O)[C@H](CCC(=O)O)NC(=O)[C@H](C)NC(=O)[C@@H](N)CCC(=O)O)[C@@H](C)O)C(=O)N[C@@H](CCCNC(=N)N)C(=O)N[C@@H](Cc1ccccc1)C(N)=O [FLP-3-3, EAEEPLGTMRFamide] (H-EAEEPLGTMRF-NH2)	867	288	–
CSCC[C@H](NC(=O)[C@@H](NC(=O)CNC(=O)[C@H](CC(C)C)NC(=O)[C@@H]1CCCN1C(=O)[C@@H](N)CC(N)=O)[C@@H](C)O)C(=O)N[C@@H](CCCNC(=N)N)C(=O)N[C@@H](Cc1ccccc1)C(N)=O [FLP-3-4, NPLGTMRFamide] (H-NPLGTMRF-NH2)	427	10.7	–
CSCC[C@H](NC(=O)[C@@H](NC(=O)CNC(=O)[C@H](Cc1ccccc1)NC(=O)[C@H](CC(C)C)NC(=O)[C@H](C)NC(=O)[C@H](CC(=O)O)NC(=O)[C@H](CCC(=O)O)NC(=O)[C@H](CO)NC(=O)[C@H](C)N)[C@@H](C)O)C(=O)N[C@@H](CCCNC(=N)N)C(=O)N[C@@H](Cc1ccccc1)C(N)=O [FLP-3-5, ASEDALFGTMRFamide] (H-ASEDALFGTMRF-NH2)	–	72.1	EC50 (NPR-10B): 1100 nM
CSCC[C@H](NC(=O)[C@@H](NC(=O)CNC(=O)[C@H](Cc1ccccc1)NC(=O)[C@@H]1CCCN1C(=O)[C@H](CCC(=O)O)NC(=O)[C@H](C)NC(=O)[C@@H](N)CO)[C@@H](C)O)C(=O)N[C@@H](CCCNC(=N)N)C(=O)N[C@@H](Cc1ccccc1)C(N)=O [FLP-3-7, SAEPFGTMRFamide] (H-SAEPFGTMRF-NH2)	439	39.5	–
CSCC[C@H](NC(=O)[C@@H](NC(=O)CNC(=O)[C@H](Cc1ccccc1)NC(=O)[C@@H]1CCCN1C(=O)[C@H](C)NC(=O)[C@H](CO)NC(=O)[C@H](CC(=O)O)NC(=O)[C@H](CC(=O)O)NC(=O)[C@H](C)NC(=O)[C@@H](N)CO)[C@@H](C)O)C(=O)N[C@@H](CCCNC(=N)N)C(=O)N[C@@H](Cc1ccccc1)C(N)=O [FLP-3-8, SADDSAPFGTMRFamide] (H-SADDSAPFGTMRF-NH2)	–	–	EC50 (FRPR-16): 1600 nM
CSCC[C@H](NC(=O)[C@@H](NC(=O)CNC(=O)[C@H](Cc1ccccc1)NC(=O)[C@@H]1CCCN1C(=O)[C@@H](NC(=O)[C@H](CC(=O)O)NC(=O)[C@H](CC(N)=O)NC(=O)[C@H](CCC(=O)O)NC(=O)[C@@H]1CCCN1C(=O)[C@@H](N)CC(N)=O)[C@@H](C)O)[C@@H](C)O)C(=O)N[C@@H](CCCNC(=N)N)C(=O)N[C@@H](Cc1ccccc1)C(N)=O [FLP-3-9, NPENDTPFGTMRFamide] (H-NPENDTPFGTMRF-NH2)	760	88.3	–
C[C@H](CCCC/C=C/C(=O)O)O[C@@H]1O[C@@H](C)[C@H](O)C[C@H]1O [ascr#3]	–	–	Attractive response, in words (C. elegans): no defect
EDGNAPFGTMKF-NH2 [FLP-3-6, flp-3 encoded peptide with R-to-K mutation within the C-terminal motif]	–	–	Activation of NPR-10 (NPR-10B), in words (NPR-10B; [1]): activated no receptors; also recorded: did not activate either receptor; Activation of NPR-10A, in words (NPR-10A): activated no receptors; Activation of FRPR-16, in words (FRPR-16; [1]): activated no receptors; also recorded: did not activate either receptor
